“And” between values parts separate entries of the source, which are not always exact repeats. Equal values may be shown once.
Assays:
LCLC-103H = assay: COMPOUND A In Vitro Assay; type: cell-based, human
Excerpt: (§1) To generate an MDM2 antagonist therapy predictive signature, the response of MDM2 antagonist therapy in vitro with gene expression profiling (FIG. 1) is combined. A bank of 287 human cancer cell lines, collectively termed the Cell Lines for Oncology/Chugai ACcumulative Tumour EncycLopedia (CELLO/CACTEL), representing a broad array of diverse human cancer tumor types are subject to evaluation using several high-throughput genomic technology platforms. The mutational status of nucleic acids from each cell line is determined by exome sequencing. Messenger RNA (mRNA) expression levels at baseline, prior to MDM2 antagonist therapy, are obtained via RNA sequencing. MDM2 antagonist therapy COMPOUND A, sometimes referred to herein as RG7112, responses are obtained by assays known to those skilled in the art such as RNA sequencing and microarray measurement using Gene Chip Human Genome U133 Plus 2.0 Array. The MDM2 therapy responses are obtained by high throughout screening assays. Depending on their responses to COMPOUND A these cell lines are classified as either sensitive, defined as IC50<=1, or resistant, defined as IC50>=10.
(§2) 281 cells are treated with MDM2 antagonists and the IC50 (therapy response) is generated. The cell lines span a broad range of tumor cell types of derivation.

LN-18 = assay: COMPOUND A In Vitro Assay; type: cell-based, human; conditions: for IC50: Homo sapiens
Excerpt: as §1, §2

NCI-H226 = assay: COMPOUND A In Vitro Assay; type: cell-based, human; conditions: for IC50: Homo sapiens
Excerpt: as §1, §2

SW1463 = assay: COMPOUND A In Vitro Assay; type: cell-based, human
Excerpt: as §1, §2

KMS-26 = assay: COMPOUND A In Vitro Assay; type: cell-based, human; conditions: for IC50: Homo sapiens
Excerpt: as §1, §2

PC-9 = assay: COMPOUND A In Vitro Assay; type: cell-based, human; conditions: for IC50: Homo sapiens
Excerpt: as §1, §2

MKN-45 = assay: COMPOUND A In Vitro Assay; type: cell-based, human; conditions: for IC50: Homo sapiens
Excerpt: as §1, §2

22Rv1 = assay: COMPOUND A In Vitro Assay; type: cell-based, human; conditions: for IC50: Homo sapiens
Excerpt: as §1, §2

DU145 = assay: COMPOUND A In Vitro Assay; type: cell-based, human
Excerpt: as §1, §2

BBC3 mRNA = assay: NO21279 blood cell gene expression on treatment, Affymetrix U133 Plus 2.0 microarray; type: in vivo, human; conditions: blood cell specimens, C1D10; IQR 1.13-1.99
Experimental: (§3) MDM2 mRNA concentrations were assessed at Roche Molecular Systems by quantitative real-time PCR with 50 ng total RNA from MACs isolated leukemia cells from blood. TaqMan (Invitrogen, Carlsbad, Calif., USA) probes were designed to detect MDM2 mRNA and the reference mRNA, beta-glucuronidase, simultaneously using two different fluorescent reporters. Gene expression profiles were generated using Affymetrix U133 Plus 2.0 microarrays. Probset ID's for the each of the four genes on said U133 Plus 2.0 microarray are: 209375_s_at (for XPC); 205386_s_at and 211832_s_at (MDM2); 211692_s_at (BBC3); 207039_at and 211156_at (CDKN2A). The “mRNA expression level” for one of the 4 genes according to the present invention is the accumulation of all counts falling into the range of exons of a gene (e.g. MDM2). […] The predictive patient signature score according to the present invention is then calculated using the following equation: patient signature score=GMDM2+GXPC+GBBC3−GCDKN2A. G in the formula stands for log 2 transformed mRNA expression levels as obtained from patient samples, for example blood leukemia or bone marrow biopsy samples. For example, for the patient data reported in Table 9 (Example 5), G is log 2 of the mRNA probeset expression of the relevant gene as measured with Affymetrix U133 Plus 2.0 microarrays.
(§4) Each intensity value is then log 2 transformed.

MDM2 mRNA [1] = assay: as above; type: in vivo, human; conditions: blood cell specimens, C1D10; IQR 1.71-5.00
Experimental: as §3, §4

CDKN2A mRNA = assay: as above; type: in vivo, human; conditions: C1D10; IQR 0.09-0.38
Experimental: as §3, §4

P53 = assay: NP21280 solid tumor trial, tumor biopsy biomarker (p53 IHC); type: in vivo, human; conditions: at C1D10, p=2.88×10−3
Experimental: The predictive mRNA signature is also evaluated in two solid tumor trials (FIG. 1). […] In both clinical trials, a biomarker package that enabled assessment of p53 pathway activation is assessed (p53 IHC, p21 IHC, MDM2 mRNA, and Ki67), MDM2 inhibition activates the P53 pathway and decreases cell proliferation.

MDM2 mRNA [2] = assay: NO21279 pharmacodynamic response, MDM2 mRNA by quantitative real-time PCR in leukemia cells; type: in vivo, human
Experimental: The performance of the MDM2 antagonist predictive mRNA response signature is tested in the clinical setting with specimens from the NO21279 leukemia trial (FIG. 1). 28 AML patients treated at the MTD are enrolled and completed pretreatment and C1D10 (cycle 1, day 10) sampling. […] The clinical endpoint in NO21279 was divided into 4 categories: Complete Response (CR), Morphologic Leukemia-Free State (MLFS), Hematologic Improvement (HI), and Progressive Disease (PD). Blood leukemia samples and bone marrow biopsy samples were collected at baseline screening, after a single dose (cycle 1 day 2, C1D2) and on last day of dosing (cycle 1, day 10, C1D10) and isolated via MACS® separation^11. The early pharmacodynamic effect of MDM2 antagonism in blood leukemia samples was assessed by measuring MDM2 RT PCR change between baseline and C1D10. Global gene expression profiles were generated for the peripheral blood leukemia cells and bone marrow biopsy samples obtained at baseline, C1D2 and C1D10.
MDM2 mRNA concentrations were assessed at Roche Molecular Systems by quantitative real-time PCR with 50 ng total RNA from MACs isolated leukemia cells from blood. TaqMan (Invitrogen, Carlsbad, Calif., USA) probes were designed to detect MDM2 mRNA and the reference mRNA, beta-glucuronidase, simultaneously using two different fluorescent reporters. Gene expression profiles were generated using Affymetrix U133 Plus 2.0 microarrays. Probset ID's for the each of the four genes on said U133 Plus 2.0 microarray are: 209375_s_at (for XPC); 205386_s_at and 211832_s_at (MDM2); 211692_s_at (BBC3); 207039_at and 211156_at (CDKN2A). […] The predictive patient signature score according to the present invention is then calculated using the following equation: patient signature score=GMDM2+GXPC+GBBC3−GCDKN2A. […] For example, for the patient data reported in Table 9 (Example 5), G is log 2 of the mRNA probeset expression of the relevant gene as measured with Affymetrix U133 Plus 2.0 microarrays.

## CCOc1cc(C(C)(C)C)ccc1C1=N[C@@](C)(c2ccc(Cl)cc2)[C@@](C)(c2ccc(Cl)cc2)N1C(=O)N1CCN(CCCS(C)(=O)=O)CC1 [COMPOUND A]
LCLC-103H; Homo sapiens, Lung, TP53 Mutant
  IC50: 0.7 µM
LCLC-103H; TP53 mutant cell line
  response to COMPOUND A (sensitive / resistant): sensitive (sensitive, defined as IC50<=1)
LN-18; LN-18, LN-18, Brain, temporal lobe, TP53 Mutant
  IC50: 0.67 µM
LN-18; LN-18, LN-18 cells
  IC50: 0.7 µM
LN-18; LN-18, TP53 mutant cell line
  response to COMPOUND A (sensitive / resistant): sensitive (sensitive, defined as IC50<=1)
NCI-H226; NCI-H226, NCI-H226, Lung, TP53 Mutant
  IC50: 0.13 µM
NCI-H226; NCI-H226, NCI-H226 cells
  IC50: 0.1 µM
NCI-H226; NCI-H226, TP53 mutant cell line
  response to COMPOUND A (sensitive / resistant): sensitive (sensitive, defined as IC50<=1)
SW1463; Homo sapiens, Intestine, large, rectum, TP53 Mutant
  IC50: 1 µM
SW1463; TP53 mutant cell line
  response to COMPOUND A (sensitive / resistant): sensitive (sensitive, defined as IC50<=1)
KMS-26; KMS-26, KMS-26, Lymphocyte, TP53 Mutant
  IC50: 0.45 µM
KMS-26; KMS-26, KMS-26 cells
  IC50: 0.5 µM
KMS-26; KMS-26, TP53 mutant cell line
  response to COMPOUND A (sensitive / resistant): sensitive (sensitive, defined as IC50<=1)
PC-9; PC-9, PC-9, Lung, TP53 Mutant
  IC50: 0.69 µM
PC-9; PC-9, PC-9 cells
  IC50: 0.7 µM
PC-9; PC-9, TP53 mutant cell line
  response to COMPOUND A (sensitive / resistant): sensitive (sensitive, defined as IC50<=1)
MKN-45; MKN-45, MKN-45, Stomach, TP53 Mutant
  IC50: 0.18 µM
MKN-45; MKN-45, MKN-45 cells
  IC50: 0.2 µM
MKN-45; MKN-45, TP53 mutant cell line
  response to COMPOUND A (sensitive / resistant): sensitive (sensitive, defined as IC50<=1)
22Rv1; 22Rv1, TP53 mutant cell line
  response to COMPOUND A (sensitive / resistant): sensitive (sensitive, defined as IC50<=1)
22Rv1; 22Rv1, 22Rv1, Prostate, TP53 Mutant
  IC50: 0.97 µM
22Rv1; 22Rv1, 22Rv1 cells
  IC50: 1 µM
DU145; Homo sapiens, DU-145, Prostate, TP53 Mutant
  IC50: 1 µM
DU145; TP53 mutant cell line
  response to COMPOUND A (sensitive / resistant): sensitive (sensitive, defined as IC50<=1)
BBC3 mRNA
  median BBC3 mRNA expression over baseline: 1.45 times
MDM2 mRNA [1]
  median MDM2 mRNA expression over baseline: 2.37 times
CDKN2A mRNA
  median CDKN2A mRNA expression decreased over baseline: 0.26 times
P53
  P53 concentration change from baseline: significantly increase
MDM2 mRNA [2]; C1D10 vs baseline, IQR 1.62-4.59, NO21279
  median MDM2 mRNA expression increase over baseline: 2.46 times
MDM2 mRNA [2]; all patients, IQR 1.62-4.59
  MDM2 mRNA (RT-PCR) fold change over baseline (C1D10), median increase: 2.46x (IQR:
MDM2 mRNA [2]; individual AML patients (no. 1-28), NO21279, blood leukemia cells, listed as RG7112
  MDM2 mRNA (RT-PCR) fold change over baseline (C1D10): 2.23 fold and 5.67 fold and 5.05 fold and 9.66 fold and 1.79 fold and 23.00 fold and 2.01 fold and 1.72 fold and 5.07 fold and 3.20 fold and 4.35 fold and 1.27 fold and 2.51 fold and 0.96 fold and 1.69 fold and 2.26 fold and 1.52 fold and 3.88 fold and 2.65 fold and 5.11 fold and 9.46 fold and 1.00 fold and 1.59 fold and 1.67 fold and 3.00 fold
